Assay results reported in the NIST ThermoML archive (doi:10.1021/je3013028).
Numbers after ± are expanded uncertainties.

How the values were obtained:
[1] = refractive index (Na D-line) (dimensionless); conditions: 298.15 K; 101.33 kPa; Liquid; Standard Abbe refractometry
[2] = Liquid, Ebulliometric method (Recirculating still)

Row | Compound | refractive index [1] | vapor or sublimation pressure ([2]; 336.63 K) | vapor or sublimation pressure ([2]; 308.14 K) | vapor or sublimation pressure ([2]; 335.63 K) | further results
1 | CCCS [1-propanethiol] | 1.4353 ± 0.0003 |  |  |  | 
2 | CC(C)(C)S [2-methyl-2-propanethiol] | 1.42 ± 0.00031 |  |  |  | vapor or sublimation pressure ([2]; 336.69 K): 98.5 ± 0.9 kPa
3 | CCSCC [3-thiapentane] | 1.43998 ± 0.00032 | 39.7 ± 0.8 kPa |  |  | 
4 | COC [dimethyl ether] |  | 1572.2 ± 7.7 kPa | 786.6 ± 3.5 kPa | 1540 ± 6.2 kPa | vapor or sublimation pressure ([2]; 336.7 K): 1572.2 ± 7.7 kPa
5 | C=CCCCC [hex-1-ene] | 1.3851 ± 0.0003 |  |  |  | vapor or sublimation pressure ([2]; 328.15 K): 77 ± 0.5 kPa; vapor or sublimation pressure ([2]; 335.74 K): 98.7 ± 0.6 kPa; vapor or sublimation pressure ([2]; 336.09 K): 99.8 ± 0.6 kPa
6 | c1ccsc1 [thiophene] | 1.52869 ± 0.00031 |  | 16.9 ± 0.8 kPa | 49.4 ± 0.8 kPa | 
